Experimental data: ChEMBL document CHEMBL3352341, “Design, synthesis and biological characterization of thiazolidin-4-one derivatives as promising inhibitors of Toxoplasma gondii” (Eur J Med Chem, 2014)
Active and inactive are the calls of the source.

Experiments:
Toxoplasma gondii [1] = assay: Antiparasitic activity against Toxoplasma gondii infected in human foreskin fibroblasts assessed as inhibition of invasion compound pretreated at 10 uM for 20 mins before infection after 1 hr by fluorescence assay; assay type: functional, organism-based
Toxoplasma gondii [2] = assay: Antiparasitic activity against Toxoplasma gondii infected in human foreskin fibroblasts assessed as inhibition of replication measured as decrease in the number of tachyzoites in vacuole at 10 uM after 24 hrs by fluorescence assay; assay type: functional, organism-based
[3] = Therapeutic index, ratio of TD50 for human foreskin fibroblasts to IC50 for Toxoplasma gondii infected in human foreskin fibroblasts; conditions: read-out: TI
[4] = Cytotoxicity against human foreskin fibroblasts after 5 days by colorimetric assay; assay type: cell-based; conditions: human foreskin fibroblasts (HFF cells), read-out: TD50
Toxoplasma gondii [5] = assay: Antiparasitic activity against Toxoplasma gondii infected in human foreskin fibroblasts assessed as inhibition of attachment compound pretreated at 10 uM for 20 mins before infection after 1 hr by fluorescence assay; assay type: functional, organism-based
Toxoplasma gondii [6] = assay: Antiparasitic activity against Toxoplasma gondii infected in human foreskin fibroblasts assessed as tachyzoite growth inhibition after 5 days by colorimetric assay; assay type: functional, organism-based; conditions: 120 h

Structure (SMILES) | inhibition (Toxoplasma gondii [1]) | inhibition (Toxoplasma gondii [2]) | selectivity ratio [3] | CC50 at 120 h [4] | inhibition (Toxoplasma gondii [5]) | IC50 (Toxoplasma gondii [6]) | IC90 (Toxoplasma gondii [6])
CCCC/C(CC)=N\N=C1\SCC(=O)N1Cc1ccccc1 | Active | Active | 37 | ≥ 320 µM | Active | 15 µM | 121 µM
O=C1CSC(NN=C2CCCCC2)=N1 | Active | Active | 20 | ≥ 320 µM | Active | 28 µM | 278 µM
O=C1CSC(NN=C2CCCC2)=N1 | Active | Active | 21 | ≥ 320 µM | Active | 27 µM | 175 µM
CCCCCC/C(C)=N\N=C1/NC(=O)CS1 | Active | Active | 18 | ≥ 320 µM | Active | 31 µM | 188 µM
C/C(=N/N=C1/SCC(=O)N1Cc1ccccc1)c1cccs1 | Active | Active | 15 | ≥ 320 µM | Active | 37 µM | 84 µM
CCC/C(C)=N\N=C1\SCC(=O)N1Cc1ccccc1 |  | Active | 12 | ≥ 320 µM |  | 47 µM | 214 µM
C/C(=N/N=C1\NC(=O)CS1)c1ccccc1 |  | Active | 5 | ≥ 320 µM |  | 114 µM | 262 µM
O=C1CSC(NN=C2CCCCCCC2)=N1 |  | Active | 4 | 309 µM |  | 79 µM | 290 µM
O=C1CS/C(=N/N=C\c2cccc3ccccc23)N1Cc1ccccc1 | Active |  | 15 | ≥ 320 µM | Active | 38 µM | 79 µM
CC(C)=C/C(C)=N\N=C1/NC(=O)CS1 |  | Active | 6 | ≥ 320 µM |  | 97 µM | 316 µM
C/C(CC(C)C)=N/N=C1/SCC(=O)N1Cc1ccccc1 |  | Active | 10 | 220 µM |  | 23 µM | 188 µM
CC(C)=C/C(C)=N\N=C1\SCC(=O)N1Cc1ccccc1 |  | Active | 3 | 67 µM |  | 23 µM | 186 µM
O=C1CS/C(=N/N=C\c2cccs2)N1 |  | Active | 4 | ≥ 320 µM |  | 135 µM | 2680 µM
CC1CCCC/C1=N/N=C1/SCC(=O)N1Cc1ccccc1 (configuration not stated) |  | Active | 13 | ≥ 320 µM |  | 43 µM | 171 µM
CC1CCCC/C1=N/N=C1\NC(=O)CS1 (configuration not stated) |  | Active | 2 | ≥ 320 µM |  | 247 µM | 785 µM
O=C1CS/C(=N/N=C\c2ccc3c(c2)OCO3)N1Cc1ccccc1 |  | Active | 2 | ≥ 320 µM |  | 290 µM | 2140 µM
CC1CCC/C(=N/N=C2/SCC(=O)N2Cc2ccccc2)C1 (configuration not stated) |  | Active | 2 | 95 µM |  | 58 µM | 248 µM
CC(C)(C)C1CCCC/C1=N/N=C1/SCC(=O)N1Cc1ccccc1 (configuration not stated) |  | Active | 6 | ≥ 320 µM |  | 102 µM | 295 µM

Structure (SMILES) | inhibition (Toxoplasma gondii [1]) | inhibition (Toxoplasma gondii [2]) | selectivity ratio [3] | CC50 at 120 h [4] | inhibition (Toxoplasma gondii [5]) | IC50 (Toxoplasma gondii [6]) | IC90 (Toxoplasma gondii [6])
CCCCCC/C(C)=N\N=C1\SCC(=O)N1Cc1ccccc1 |  | Active | 6 | 109 µM |  | 20 µM | 88 µM
C/C(=N/N=C1\NC(=O)CS1)c1cccnc1 |  | Active | 8 | ≥ 320 µM |  | 74 µM | 406 µM
CC/C(C)=N\N=C1/NC(=O)CS1 |  | Active | 4 | ≥ 320 µM |  | 133 µM | 1160 µM
CC1CC/C(=N/N=C2/SCC(=O)N2Cc2ccccc2)C1 (configuration not stated) |  | Active | 3 | ≥ 320 µM |  | 184 µM | 845 µM
O=C1CS/C(=N/N=C\c2c[nH]c3ccccc23)N1Cc1ccccc1 |  | Active | 2 | 102 µM |  | 52 µM | 177 µM
C/C(=N/N=C1/SCC(=O)N1Cc1ccccc1)c1ccc2ccccc2c1 |  | Active | 5 | ≥ 320 µM |  | 109 µM | 499 µM
C/C(=N/N=C1/SCC(=O)N1Cc1ccccc1)c1ccco1 |  | Active | 7 | ≥ 320 µM |  | 76 µM | 212 µM
O=C1CSC(NN=C2CCCCCC2)=N1 |  | Active | 5 | ≥ 320 µM |  | 111 µM | 387 µM
CC1CCC(=N/N=C2\NC(=O)CS2)CC1 (configuration not stated) |  | Active | 2 | ≥ 320 µM |  | 226 µM | 777 µM
O=C1CS/C(=N/N=C\c2ccncc2)N1Cc1ccccc1 |  | Active | 2 | 203 µM |  | 118 µM | 304 µM
O=C1CS/C(=N/N=C2CCCCC2)N1Cc1ccccc1 |  | Active | 2 | ≥ 320 µM |  | 255 µM | 662 µM
C=CCC/C(C)=N\N=C1\SCC(=O)N1Cc1ccccc1 |  | Active | 3 | ≥ 320 µM |  | 207 µM | 885 µM
CCCC/C(CC)=N\N=C1/NC(=O)CS1 |  | Active | 6 | ≥ 320 µM |  | 89 µM | 288 µM
CC/C(C)=N\N=C1\SCC(=O)N1Cc1ccccc1 |  | Active | 6 | ≥ 320 µM |  | 99 µM | 392 µM
C/C(=N/N=C1\NC(=O)CS1)c1cc2ccccc2oc1=O | Active |  | 70 | ≥ 320 µM | Active | 8 µM | 49 µM
CCC(CC)=N/N=C1/SCC(=O)N1Cc1ccccc1 |  | Active | 16 | ≥ 320 µM |  | 36 µM | 243 µM
C/C(=N/N=C1\NC(=O)CS1)C1CCCCC1 |  | Active | 10 | ≥ 320 µM |  | 55 µM | 283 µM
